From US11917959B2, “Multi-ear system to enhance monocot plant yield” (Monsanto Technology LLC, priority 2015, dated 2024)

Columns and labels:
[1] = system: eleven corn inbred germplasm; test: Chemistry treatment of eleven corn inbred germplasm at V3 or V8 (Example 12); format: in vivo; conditions: for Avg Kernels from Main Stem / Avg Total Kernels Per Plant: auto-self
Source text: Seeds for eleven corn inbred germplasm was planted in six-packs and grown in greenhouses under standard conditions as outlined in Example 1. At thirteen days after germination the seedlings for the eleven different germplasm (20 plants per germplasm) were transplanted into standard pots. […]

[2] = system: haploid maize populations; test: Doubling efficiency of four germplasms after co-dominant ear induction (Example 3); format: in vivo; set-up: DE50: unit not given beside the values; conditions: 60 mL 2.5% PBZ at V7 or V8
Experimental: Two F1 hybrid-derived (one male and one female) haploid populations (referred to herein as H1 and H2) and two inbred-derived haploid lines (male Germplasm B and female Germplasm A) were tested in this experiment. Seven days after planting, several dozen seedlings from each group were removed from the soil and subjected to a bulk colchicine-based chromosome doubling treatment as described above. After the chromosome doubling treatment, seedlings were transplanted to soil and tended in a greenhouse at standard maize growing conditions. When the seedlings had reached approximately the V7 or V8 stage (approximately 29 days after doubling under the growing conditions used), the seedlings were subjected to co-dominant ear induction treatment comprising 60 mL of 2.5% PBZ added to the soil surrounding the base of each stem.
The seedlings were then tended in standard greenhouse maize growing conditions until they flowered, at which time each plant that produced pollen was self-pollinated and then left undisturbed to await fertilization and kernel production. After approximately 2-3 weeks, ears were harvested and the kernels that formed on them (DH1) were counted to determine doubling efficiencies.
Doubling efficiencies (DE) were calculated under the different constraints described in the previous example to generate values for DE04, DE20, DE30, and DE50 for each of the four genotypes. Furthermore, the above doubling efficiencies were calculated once by considering only the kernels that formed on the primary ear of each plant (Ear1), once by considering only the kernels that formed on the primary and secondary ear of each plant (Ear2), once by considering only the kernels that formed on the primary, secondary, and tertiary ear of each plant (Ear3), and finally by considering all the kernels that formed on all the ears of each plant (Earall).

[3] = pedigree A, 3HV: 14DAP, 4 mg/plant, 2% 50 mL
[4] = pedigree A, 3LV: 14DAP, 4 mg/plant, 6.25% 16 mL
[5] = pedigree A, 8HV: 28DAP, 8 mg/plant, 2% 100 mL
[6] = pedigree A, 8LV: 28DAP, 8 mg/plant, 13% 16 mL
[7] = pedigree B, 3HV: 14DAP, 6 mg/plant, 3% 50 mL
[8] = pedigree B, 3LV: 14DAP, 6 mg/plant, 9.38% 16 mL
[9] = pedigree B, 8HV: 28DAP, 16 mg/plant, 4% 100 mL
[10] = pedigree B, 8LV: 28DAP, 16 mg/plant, 25% 16 mL
[11] = pedigree C, 3LV: 14DAP, 6 mg/plant, 9.38% 16 mL
[12] = pedigree C, 8HV: 28DAP, 16 mg/plant, 4% 100 mL
[13] = pedigree C, 8LV: 28DAP, 16 mg/plant, 25% 16 mL
[14] = pedigree D, 3HV: 14DAP, 6 mg/plant, 3% 50 mL
[15] = pedigree D, 3LV: 14DAP, 6 mg/plant, 9.38% 16 mL
[16] = pedigree D, 8HV: 28DAP, 16 mg/plant, 4% 100 mL
[17] = pedigree D, 8LV: 28DAP, 16 mg/plant, 25% 16 mL
[18] = pedigree E, 3HV: 14DAP, 6 mg/plant, 3% 50 mL
[19] = pedigree E, 3LV: 14DAP, 6 mg/plant, 9.38% 16 mL
[20] = pedigree E, 8HV: 28DAP, 16 mg/plant, 4% 100 mL
[21] = pedigree E, 8LV: 28DAP, 16 mg/plant, 25% 16 mL
[22] = pedigree F, 3HV: 14DAP, 6 mg/plant, 3% 50 mL
[23] = pedigree F, 3LV: 14DAP, 6 mg/plant, 9.38% 16 mL
[24] = pedigree F, 8HV: 28DAP, 16 mg/plant, 4% 100 mL
[25] = pedigree F, 8LV: 28DAP, 16 mg/plant, 25% 16 mL
[26] = pedigree G, 3HV: 14DAP, 6 mg/plant, 3% 50 mL
[27] = pedigree G, 3LV: 14DAP, 6 mg/plant, 9.38% 16 mL
[28] = pedigree G, 8HV: 28DAP, 16 mg/plant, 4% 100 mL
[29] = pedigree G, 8LV: 28DAP, 16 mg/plant, 25% 16 mL
[30] = pedigree H, 3HV: 14DAP, 6 mg/plant, 3% 50 mL
[31] = pedigree H, 3LV: 14DAP, 6 mg/plant, 9.38% 16 mL
[32] = pedigree H, 8HV: 28DAP, 16 mg/plant, 4% 100 mL
[33] = pedigree H, 8LV: 28DAP, 16 mg/plant, 25% 16 mL
[34] = pedigree I, 3HV: 14DAP, 10 mg/plant, 5% 50 mL
[35] = pedigree I, 3LV: 14DAP, 10 mg/plant, 15.63% 16 mL
[36] = pedigree I, 8HV: 28DAP, 32 mg/plant, 8% 100 mL
[37] = pedigree I, 8LV: 28DAP, 32 mg/plant, 50% 16 mL
[38] = pedigree J, 3HV: 14DAP, 10 mg/plant, 5% 50 mL
[39] = pedigree J, 3LV: 14DAP, 10 mg/plant, 15.63% 16 mL
[40] = pedigree J, 8HV: 28DAP, 32 mg/plant, 8% 100 mL
[41] = pedigree J, 8LV: 28DAP, 32 mg/plant, 50% 16 mL
[42] = pedigree K, 3HV: 14DAP, 6 mg/plant, 3% 50 mL
[43] = pedigree K, 8HV: 28DAP, 16 mg/plant, 4% 100 mL
[44] = pedigree K, 8LV: 28DAP, 16 mg/plant, 25% 16 mL
[45] = pedigree K, K3LV: 14DAP, 6 mg/plant, 9.38% 16 mL

## CC(C)(C)[C@@H](O)[C@@H](Cc1ccc(Cl)cc1)n1cncn1 (relative stereo) [PBZ, (±)-(R*, R*)-beta-((4-chlorophenyl)methyl)-alpha-(1,1,-dimethylethyl)-1H-1,2,4,-triazole-1-ethanol]
[1]; diverse germplasm treated at V3 (14DAP) or V8 (28DAP), FIG. 11
  kernel number per plant: average increase in kernel number per plant
[1]; every germplasm tested, FIG. 10
  decrease in height, on average: 30-50%
[1]; [3]
  Avg Kernels from Main Stem: 330.50
  Avg Total Kernels Per Plant: 351.00
[1]; [4]
  Avg Kernels from Main Stem: 352.25
  Avg Total Kernels Per Plant: 515.75
[1]; [5]
  Avg Kernels from Main Stem: 337.00
  Avg Total Kernels Per Plant: 345.75
[1]; [6]
  Avg Kernels from Main Stem: 366.50
  Avg Total Kernels Per Plant: 413.00
[1]; [7]
  Avg Kernels from Main Stem: 204.00
  Avg Total Kernels Per Plant: 215.50
[1]; [8]
  Avg Kernels from Main Stem: 260.25
  Avg Total Kernels Per Plant: 291.25
[1]; [9]
  Avg Kernels from Main Stem: 567.00
  Avg Total Kernels Per Plant: 567.25
[1]; [10]
  Avg Kernels from Main Stem: 427.00
  Avg Total Kernels Per Plant: 432.75
[1]; [11]
  Avg Kernels from Main Stem: 291.50
  Avg Total Kernels Per Plant: 611.25
[1]; [12]
  Avg Kernels from Main Stem: 148.00
  Avg Total Kernels Per Plant: 255.25
[1]; [13]
  Avg Kernels from Main Stem: 325.75
  Avg Total Kernels Per Plant: 513.25
[1]; [14]
  Avg Kernels from Main Stem: 616.75
  Avg Total Kernels Per Plant: 766.25
[1]; [15]
  Avg Kernels from Main Stem: 631.25
  Avg Total Kernels Per Plant: 839.25
[1]; [16]
  Avg Kernels from Main Stem: 581.75
  Avg Total Kernels Per Plant: 646.75
[1]; [17]
  Avg Kernels from Main Stem: 727.75
  Avg Total Kernels Per Plant: 745.50
[1]; [18]
  Avg Kernels from Main Stem: 334.50
  Avg Total Kernels Per Plant: 405.25
[1]; [19]
  Avg Kernels from Main Stem: 291.25
  Avg Total Kernels Per Plant: 422.50
[1]; [20]
  Avg Kernels from Main Stem: 532.50
  Avg Total Kernels Per Plant: 678.25
[1]; [21]
  Avg Kernels from Main Stem: 583.25
  Avg Total Kernels Per Plant: 772.75
[1]; [22]
  Avg Kernels from Main Stem: 414.75
  Avg Total Kernels Per Plant: 1078.75
[1]; [23]
  Avg Kernels from Main Stem: 392.00
  Avg Total Kernels Per Plant: 777.75
[1]; [24]
  Avg Kernels from Main Stem: 301.00
  Avg Total Kernels Per Plant: 442.25
[1]; [25]
  Avg Kernels from Main Stem: 461.00
  Avg Total Kernels Per Plant: 661.00
[1]; [26]
  Avg Kernels from Main Stem: 381.50
  Avg Total Kernels Per Plant: 905.50
[1]; [27]
  Avg Kernels from Main Stem: 485.50
  Avg Total Kernels Per Plant: 1033.50
[1]; [28]
  Avg Kernels from Main Stem: 284.50
  Avg Total Kernels Per Plant: 567.00
[1]; [29]
  Avg Kernels from Main Stem: 542.75
  Avg Total Kernels Per Plant: 728.25
[1]; [30]
  Avg Kernels from Main Stem: 77.50
  Avg Total Kernels Per Plant: 80.00
[1]; [31]
  Avg Kernels from Main Stem: 73.25
  Avg Total Kernels Per Plant: 83.00
[1]; [32]
  Avg Kernels from Main Stem: 388.50
  Avg Total Kernels Per Plant: 520.00
[1]; [33]
  Avg Kernels from Main Stem: 439.75
  Avg Total Kernels Per Plant: 564.75
[1]; [34]
  Avg Kernels from Main Stem: 172.00
  Avg Total Kernels Per Plant: 218.75
[1]; [35]
  Avg Kernels from Main Stem: 175.00
  Avg Total Kernels Per Plant: 191.25
[1]; [36]
  Avg Kernels from Main Stem: 508.75
  Avg Total Kernels Per Plant: 550.50
[1]; [37]
  Avg Kernels from Main Stem: 448.25
  Avg Total Kernels Per Plant: 448.25
[1]; [38]
  Avg Kernels from Main Stem: 587.00
  Avg Total Kernels Per Plant: 1005.75
[1]; [39]
  Avg Kernels from Main Stem: 602.75
  Avg Total Kernels Per Plant: 953.25
[1]; [40]
  Avg Kernels from Main Stem: 361.50
  Avg Total Kernels Per Plant: 398.75
[1]; [41]
  Avg Kernels from Main Stem: 280.50
  Avg Total Kernels Per Plant: 298.75
[1]; [42]
  Avg Kernels from Main Stem: 317.75
  Avg Total Kernels Per Plant: 365.00
[1]; [43]
  Avg Kernels from Main Stem: 446.75
  Avg Total Kernels Per Plant: 487.00
[1]; [44]
  Avg Kernels from Main Stem: 495.00
  Avg Total Kernels Per Plant: 539.75
[1]; [45]
  Avg Kernels from Main Stem: 418.75
  Avg Total Kernels Per Plant: 437.75
[2]; Ear1, Control A
  DE04: 72.9
  DE20: 60.7
  DE30: 48.6
  DE50: 48.6
[2]; Ear1, Control B
  DE04: 64.8
  DE20: 44.5
  DE30: 40.5
  DE50: 32.4
[2]; Ear1, Germplasm A
  DE04: 64.6
  DE20: 37.4
  DE30: 30.6
  DE50: 23.8
[2]; Ear1, Germplasm B
  DE04: 56.7
  DE20: 40.5
  DE30: 40.5
  DE50: 40.5
[2]; Earall, Control A
  DE04: 81
  DE20: 76.9
  DE30: 76.9
  DE50: 64.8
[2]; Earall, Control B
  DE04: 68.8
  DE20: 56.7
  DE30: 56.7
  DE50: 44.5
[2]; Earall, Germplasm A
  DE04: 81.6
  DE20: 71.4
  DE30: 71.4
  DE50: 64.6
[2]; Earall, Germplasm B
  DE04: 68.8
  DE20: 48.6
  DE30: 44.5
  DE50: 44.5
